In general, IC50 refers to the midpoint of a concentration-inhibition curve.

Where two headings read alike, the source gives them in different places.

We go through 8 compounds from US12565504B2, “Spirocyclic O-glycoprotein-2-acetamido-2-deoxy-3-d-glucopyranosidase inhibitors” (BIOGEN MA INC., priority 2019, dated 2026).

Data set [1] deals with OGA (S400 O-GLCNAC) (Homo sapiens (Human), UniProt O60502). Briefly: Cellular OGA-Tau MSD Assay. The class given is cell-based. To be noted: HEK-293T cells transfected with OGT and Tau-V5; Tau-S400-GlcNAc MSD readout. The method in brief:
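HEK-293T cells transiently co-expressing OGT and Tau-V5 were treated overnight at 37° C with compounds (top 1 uM, 3-fold, 10 points). Lysate Tau was captured on V5 antibody, and S400-GlcNAc was detected by MSD electrochemiluminescence. IC50 was derived from a 4-parameter fit of normalized % activity.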

Data set [2] can be described thus: Rat Liver Microsome Stability Assay. The note with it: rat liver microsomes 0.5 mg/mL, compound 1 μM; Qh 55 mL/minute/kg. (Liver microsomes are vesicles of endoplasmic reticulum, rich in cytochrome P450 enzymes.)
Method: (§1) Aliquots (40 uL) at 0, 5, 10, 15, 25 and 40 minutes post NADPH addition (or compound addition for reactions in absence of NADPH) were transferred into individual 96-well plate wells containing 40 ng/ml of 8-cyclopently-1,3-dipropylxanthine (CPDPX, internal standard) in 160 uL acetonitrile:methanol (1:1 v/v).
(§2) The LC/MS/MS system consisted of an ultra high throughput RapidFire® 300 system (Agilent Technologies, Santa Clara, CA) coupled to a Triple Quad 5500 mass spectrometer (ABSciex, Foster City, CA). Sample load and wash were performed on a RapidFire® C4 cartridge using 0.1% formic acid in water as mobile phase A and sample elution using 0.1% formic acid in acetonitrile:methanol (1:1 v/v) as mobile phase B.
(§3) CLint, app (apparent intrinsic clearance) was calculated using the following equation for microsome stability.
(§4) [formula] • where “a” represents 45 grams of liver/kg of body weight for rat. • CLint,app (apparent intrinsic clearance) was calculated using the following equation for hepatocyte stability: • CLhep (hepatic clearance) was calculated using the following equation for microsomes
(§5) [formula] • using 55 mL/minute/kg as Qh (hepatic blood flow) for rat.
In data set [3] the test system is P-gp (MDR1). As to the kind of experiment: MDR1-MDCK Efflux Ratio Assay. Type of data set: in vitro ADME. To be noted: dog, MDR1-MDCK cells, pH 7.4, read-out: MDR1-MDCK Efflux Ratio (B-A/A-B). As for the experimental part:
MDR1-MDCK cell monolayers were grown to confluence on microporous polyester membranes in 96-well Corning insert plates. The permeability assay buffer was Hanks' Balanced Salt Solution containing 10 mM HEPES at pH of 7.4. Loperamide (1 μM) was used as a positive control P-gp substrate. Propranolol and Bestatin (1 μM) were used as high and low permeability comparators, respectively.
Test compounds or positive control P-gp substrate/permeability comprators were added to respective apical and basolateral chambers for bidirectional assessment of permeability. Receiver buffer (transport buffer supplemented with 1% bovine serum albumin) was added to respective receiver chambers. MDR1-MDCK cells were incubated with test compounds at 37° C. with 5% CO2 for 2 hr. Samples were collected from the donor chamber at both 0 and 120 minutes, and from the receiver chamber at 120 minutes. Test and control compound concentrations were determined using LC-MS/MS analysis. Each determination was performed in triplicate.

Data set [4] addresses Recombinant full length human OGA enzyme (Homo sapiens (Human), UniProt O60502). Briefly: OGA Enzyme Inhibition Biochemical Assay. To be noted: 1 nM OGA, 100 μM 4-MUGlcNAc, 90 minutes, pH 6.4. The method in brief: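 Full-length recombinant human OGA with fluorogenic 4-MUGlcNAc in McIlvaine buffer pH 6.4, 0.01% BSA; 90 min at room temperature, glycine pH 10 quench, fluorescence Ex 355/Em 460 nm. 10-point, 4-fold dilution from 20 μM; 4-parameter variable-slope fit.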

The conditions of data set [5]: rat, microsomes, 1 μM, pH 7.4.
Method: as §1, §2, §3, §4, §5

Chain of Recombinant full length human OGA enzyme (O60502 whole entry): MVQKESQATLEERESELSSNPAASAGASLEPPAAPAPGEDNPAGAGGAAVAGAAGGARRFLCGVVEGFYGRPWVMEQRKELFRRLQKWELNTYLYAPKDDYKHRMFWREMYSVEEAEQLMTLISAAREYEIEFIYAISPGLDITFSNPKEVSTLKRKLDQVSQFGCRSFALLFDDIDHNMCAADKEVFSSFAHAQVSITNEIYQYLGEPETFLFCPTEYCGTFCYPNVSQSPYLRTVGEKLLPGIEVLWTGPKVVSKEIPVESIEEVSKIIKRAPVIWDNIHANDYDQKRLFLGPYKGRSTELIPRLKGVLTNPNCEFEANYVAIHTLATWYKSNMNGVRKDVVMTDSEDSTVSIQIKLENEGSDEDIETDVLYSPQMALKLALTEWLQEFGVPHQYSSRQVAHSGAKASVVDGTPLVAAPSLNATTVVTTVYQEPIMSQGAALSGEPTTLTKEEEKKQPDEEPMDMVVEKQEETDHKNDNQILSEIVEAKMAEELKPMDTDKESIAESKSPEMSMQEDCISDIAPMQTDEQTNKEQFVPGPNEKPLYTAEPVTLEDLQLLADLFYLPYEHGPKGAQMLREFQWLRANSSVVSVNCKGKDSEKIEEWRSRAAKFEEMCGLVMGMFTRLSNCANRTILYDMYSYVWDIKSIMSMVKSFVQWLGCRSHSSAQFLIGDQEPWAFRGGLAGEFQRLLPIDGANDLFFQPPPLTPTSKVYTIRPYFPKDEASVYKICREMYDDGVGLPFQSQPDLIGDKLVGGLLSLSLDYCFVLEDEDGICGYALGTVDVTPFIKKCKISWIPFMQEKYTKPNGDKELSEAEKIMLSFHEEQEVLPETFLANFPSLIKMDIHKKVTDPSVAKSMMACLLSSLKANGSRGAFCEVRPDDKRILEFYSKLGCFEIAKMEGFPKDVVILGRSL
Chain of OGA (S400 O-GLCNAC) (O60502 whole entry): as above

On to `CC(=O)Nc1ncc(CN2CCCC3(C2)OCc2cnccc23)s1` (stereo not drawn) [Example 68, N-(5-((3H-Spiro[furo[3,4-c]pyridine-1,3′-piperidin]-1′-yl)methyl)thiazol-2-yl)acetamide], for which the IC50 in data set [1] turned out to be 18 nM; in data set [4], 6 nM. Also, the “RLM % Qh (%)” value in data set [2] is reported as 84%. In data set [3], the efflux ratio at 2 hr is 10.7.
The like results for `CC(=O)Nc1nc(F)c(CN2CCCC3(C2)OCc2ccncc23)s1` (stereo not drawn) [Example 73, N-(5-((1H-Spiro[furo[3,4-c]pyridine-3,3′-piperidin]-1′-yl)methyl)-4-fluorothiazol-2-yl)acetamide] were, in that order, 23.7 nM, 9.2 nM, 78% and 21.6.
With `CC(=O)Nc1ncc(CN2CCCC3(C2)OCc2ccncc23)s1` (stereo not drawn) [Example 74, N-(5-((1H-Spiro[furo[3,4-c]pyridine-3,3′-piperidin]-1′-yl)methyl)thiazol-2-yl)acetamide], the IC50 stood at 22.6 nM in data set [1] and 13 nM in data set [4]. Moreover, the “RLM % Qh (%)” value in data set [2] is listed as 75%. For the same compound, in data set [3], the efflux ratio at 2 hr was determined as 36.5.
Consider `COc1nccc2c1COC21C[C@H](C)N(Cc2cnc(NC(C)=O)s2)C1` (stereo partly drawn) [Example 78, N-(5-(((5′S)-4-Methoxy-5′-methyl-3H-spiro[furo[3,4-c]pyridine-1,3′-pyrrolidin]-1′-yl)methyl)thiazol-2-yl)acetamide], for which the values for the IC50 in data set [1] and in data set [4] were 9 nM and 65 nM, respectively. The “RLM % Qh (%)” value in data set [2] was 93%. For the same compound, in data set [3], the efflux ratio at 2 hr is 7.9.
Take `COc1nccc2c1COC21CCCN(Cc2sc(NC(C)=O)nc2F)C1` (stereo not drawn) [Example 81, N-(4-Fluoro-5-((4-methoxy-3H-spiro[furo[3,4-c]pyridine-1,3′-piperidin]-1′-yl)methyl)thiazol-2-yl)acetamide]: the IC50 in data set [1] came out at 15.1 nM; in data set [4] it was 1.1 nM. Besides, the “RLM % Qh (%)” value in data set [2] is reported as 78%. Further, the efflux ratio at 2 hr in data set [3] worked out at 2.5.
For `COc1nccc2c1COC21CCCN(Cc2cnc(NC(C)=O)s2)C1` (stereo not drawn) [Example 82, N-(5-((4-Methoxy-3H-spiro[furo[3,4-c]pyridine-1,3′-piperidin]-1′-yl)methyl)thiazol-2-yl)acetamide], the IC50 in data set [1] is 126 nM; in data set [4], 1.6 nM. In addition, the “RLM % Qh (%)” value in data set [2] was found to be 78%. Also, the efflux ratio at 2 hr in data set [3] worked out at 4.4.
On the same counts, the results for `CC(=O)Nc1nc(F)c(CN2CCCC3(C2)OCc2c3cc[nH]c2=O)s1` (stereo not drawn) [Example 86, N-(4-Fluoro-5-((4-oxo-4,5-dihydro-3H-spiro[furo[3,4-c]pyridine-1,3′-piperidin]-1′-yl)methyl)thiazol-2-yl)acetamide] are 138 nM, 14.5 nM, 37% and 32.6.
Regarding `CC(=O)Nc1nc(F)c(CN2CCC3(Cc4ncccc4O3)C2)s1` (stereo not drawn) [Example 91, N-(5-((3H-spiro[furo[3,2-b]pyridine-2,3′-pyrrolidin]-1′-yl)methyl)-4-fluorothiazol-2-yl)acetamide], the “RLM % Qh (%)” value in data set [5] is 45%. Further, the 50% inhibitory concentration (IC50) in data set [4] was 70 nM.
